Test results published in US10153510B2, “Non-aqueous redox flow batteries including 3,7-perfluoroalkylated phenothiazine derivatives” (University of Kentucky Research Foundation, priority 2014, dated 2018).
Converted amounts (≈) assume the structure as drawn. “And” between values parts separate entries of the source, which are not always exact repeats. Identical values can stand only once. Like-named read-outs stand apart in the source and are kept apart here.

Experiments:
[1] = 1.2 M LiPF6 in EC/EMC; cited from earlier work
[2] = Cyclic voltammetry, half wave redox potentials; assay type: physicochemical; conditions: 20 mV/s; for Low potential event vs. Li+/0: 5 mM analyte in 0.2 M LiBF4 in PC; for High potential event vs. Li+/0: 5 mM in 0.2 M LiBF4 in PC, (a) irreversible oxidation potential estimated from forward wave and estimated reverse wave
Protocol: (§1) Electrochemical experiments were performed in an argon-filled glovebox at room temperature. Cyclic voltammetry (CV) measurements were performed in a three-electrode cell with a 3 mm diameter glassy carbon working electrode, Pt wire counter electrode, and Li foil reference electrode; voltammograms were taken of 0.2 M LiBF4 in PC containing 5 mM analyte using a CH Instruments 605E potentiostat. For UV-vis spectra of neutral compounds, catholytes were dissolved at 0.2 mM or 5 mM in 0.2 M LiBF4 in PC in glovebox and were removed in special optical glass cuvettes (Starna) after sealing with Teflon caps. The solutions were subsequently monitored for 5 h on an Agilent 8453 diode-array spectrometer.
Cyclic voltammetry was used to characterize the electrochemical behavior of BCF3EPT and to characterize DBBB and TMeQ for comparison with reported data. The individual redox events for these electro-active materials can be used to estimate the open-circuit voltage (OCV) of an ORFB containing each catholyte-anolyte pair. LiBF4 (0.2M) was used in propylene carbonate (PC) for these experiments to allow for direct comparison with the previously reported DBBB/TMeQ battery. The voltammograms of BCF3EPT show a reversible first oxidation at a potential of 3.9 V vs. Li+/0, which corresponds to generation of the radical cation, followed by an irreversible second oxidation at ca. 4.4 V vs. Li+/0 (FIG. 2a) corresponding to formation of the dication. […] No peaks corresponding to the reduction of the neutral compounds was observed during the anodic scans of BC3EPT and DBBB in this electrolyte. […] The redox potentials of BCF3EPT and DBBB are similar, thus it is contemplated that they will give similar cell voltages when coupled with TMeQ in an ORFB.

[3] = Maximum solubility of electro-active species in 0.2 M LiBF4 in PC; assay type: physicochemical; conditions: organic solvent or mixture, thermodynamic from solid, room temperature
Protocol: as §1
To study the behavior of the new catholyte BCF3EPT relative to DBBB, a set of batteries with the same concentration of electro-active species as the reported DBBB/TMeQ battery (0.05 M), as well as with the highest concentration possible for all three species, were identified for comparison. The maximum solubilities for DBBB, TMeQ and BCF3EPT in 0.2 M LiBF4 in PC were ca. 0.18 M, 0.37 M, and 1.2 M, respectively. […] Batteries were also fabricated at the highest concentration possible for BCF3EPT and TMeQ (0.35 M), beyond that which was possible for DBBB. By this measure, two sets of batteries were able to be tested at the same concentrations, including one near the limiting concentration of DBBB, and a third that allowed for analysis of a battery near the solubility limit of TMeQ.

[4] = Stability rating of phenothiazine derivatives (Table 2 compilation); assay type: physicochemical
From the text: (§2) Table 2 includes a compilation of data related to phenothiazine derivatives overcharge data of phenothiazine compounds as well as whether the compounds are practical for use in redox flow batteries. Some phenothiazine derivatives have solubility and stability sufficient for overcharge protection, they are not sufficiently soluble to be practical for redox flow applications. As exemplified in Table 2, EPT and DClEPT are practical for overcharge protection but are not practical for redox flow.
(§3) The data includes overcharge data at 100% overcharge for EPT, DBrEPT, DClEPT, BCF3EPT and DCNEPT from Ergun, et al. Chem. Comm., 2014, 50, 5339-5341. (30) Overcharge data at constant overcharge for EPT and BCF3EPT is derived from the studies described in Kaur et al., J. Materials Chemistry A, 2014, 2, 18190-18193. (29) Overcharge data at 100% overcharge for PT, MPT and EPT provided in Table 2 was derived from studies described in Narayana et al. ChemPhysChem, 2015, 16, 1179-1189. (32) Overcharge results for BCF3CF2EPT and BCF3(4-CF3C6H4)PT are provided in FIGS. 10 and 11, respectively.

[5] = Solubility of phenothiazine derivatives (Table 2 compilation); assay type: physicochemical; conditions: electrolyte not stated
From the text: as §2, §3

[6] = UV-vis stability of neutral and radical-cation forms (bulk electrolysis); assay type: physicochemical; conditions: for stability of neutral compound by UV-vis: 0.2 mM and 5 mM in LiBF4/PC, over 5 h
Protocol: as §1
Bulk electrolysis experiments were performed at 5 mM analyte in 0.2 M LiBF4 in PC with a Pt coiled-wire working electrode and a Li foil reference electrode, as well as a Pt wire counter electrode suspended in solution in a separate fitted glass tube. Electrolysis potentials were applied for 84 min in the glovebox, after which the solutions were diluted and removed from the glovebox in special optical glass cuvettes (Starna) sealed with Teflon caps. The solutions were subsequently monitored for 5 hours on an Agilent 8453 diode-array spectrometer.
Additionally, a compound that is stable in ambient conditions may be sensitive to electrolyte components, as was previously observed for a phenothiazine derivative with a tert-butyl group at the N position.(31) To compare the stability of the neutral and radical-cation forms of BCF3EPT to those of DBBB, UV-vis spectra were collected for both of the oxidation states of both compounds in LiBF4/PC. […] To simulate the charged species of each catholyte, the radical cation was generated by bulk electrolysis.

[7] = organic solvent or mixture, read-out: Solubility

Structure (SMILES) | Stability [4] | Solubility [5] | further results
Cc1ccc2nc(C)c(C)nc2c1 [TMeQ, 2,3,6-trimethyl quinoxaline] | – | – | Low potential event vs. Li+/0 [2]: 2.5 V; High potential event vs. Li+/0 [2]: 2.8 V; solubility at 1 h [3]: ~370 mM (≈ 63.7 mg/mL)
CCN1c2ccc(C(F)(F)C(F)(F)F)cc2Sc2cc(C(F)(F)C(F)(F)F)ccc21 [BCF3CF2EPT] | High | – | –
c1ccc2c(c1)Nc1ccccc1S2 [PT] | Low | 100 mM (≈ 19.9 mg/mL) | –
CN1c2ccccc2Sc2ccccc21 [MPT] | high | 100 mM (≈ 21.3 mg/mL) | –
COCCOc1cc(C(C)(C)C)c(OCCOC)cc1C(C)(C)C [DBBB, 2,5-di-tert-butyl-1,4-bis(2-methoxyethoxy)benzene] | – | – | Low potential event vs. Li+/0 [2]: 4.0 V; High potential event vs. Li+/0 [2]: 4.7 V and 4.7^(a) V; solubility at 1 h [3]: ~180 mM (≈ 60.9 mg/mL); stability of neutral compound by UV-vis [6]: neither compound showed measurable signs of change
CCN1c2ccccc2Sc2ccccc21 [EPT] | High | – | Solubility [5, 7]: 100 mM (≈ 22.7 mg/mL)

Further lines, with some results ahead:

Stability [4] | Solubility [5] | Structure (SMILES) | further results
high | – | CCN1c2ccc(C(F)(F)F)cc2Sc2cc(C(F)(F)F)ccc21 [BCF3EPT, 3,7-bis(trifluoromethyl)-N-ethylphenothiazine] | stability relative to DDB [1]: higher stability; Low potential event vs. Li+/0 [2]: 3.9 V; solubility at 1 h [3]: ~1200 mM (≈ 436 mg/mL); Solubility [5, 7]: 1500 to 2000 mM (≈ 545 to 727 mg/mL); stability of neutral compound by UV-vis [6]: neither compound showed measurable signs of change; stability of radical cation (UV-vis, comparison) ([6]; 0.2 M LiBF4 in PC, 5 h period): significantly more stable
high | 100 mM (≈ 38.5 mg/mL) | CCN1c2ccc(Br)cc2Sc2cc(Br)ccc21 [DBrEPT] | –
high | low | CCN1c2ccc(C#N)cc2Sc2cc(C#N)ccc21 [DCNEPT] | –
High | 100 mM (≈ 29.6 mg/mL) | CCN1c2ccc(Cl)cc2Sc2cc(Cl)ccc21 [DClEPT] | –
– | Low | CCN1c2ccc([N+](=O)[O-])cc2Sc2cc([N+](=O)[O-])ccc21 [DNO2EPT] | –
High | – | CCN1c2ccc(C#N)cc2Sc2cc(C#N)ccc21 [BCF3(4-CF3C6H4)PT] | –
